Results on 3 compounds are retold here after PMC11745148, “Identification of Cannabidiolic and Cannabigerolic Acids as MTDL AChE, BuChE, and BACE‐1 Inhibitors Against Alzheimer's Disease by In Silico, In Vitro, and In Vivo Studies” (Phytotherapy Research, 2024).

Where two headings read alike, the source gives them in different places.

Data set [1] addresses T1, Acetylcholinesterase from Electrophorus electricus AChE (Electrophorus electricus, UniProt O42275).
T1 construct: purchased Sigma-Aldrich
Briefly: Cholinesterase activity by the Elmann method, kinetic parameters and Ki on AChE. It is filed as biochemical. The note with it: for inhibition type on AChE: increase in Km without affecting Vmax.

Data set [2] concerns the target T2, butirrylcholinesterase from equine serum BuChE (Equus caballus, UniProt P81908).
T2 construct: purchased Sigma-Aldrich; host or cells: equine serum
Briefly: Cholinesterase activity by the Elmann method, kinetic parameters and Ki on BuChE. The data set is classed as biochemical. The note with it: for inhibition type on BuChE: decrease of Vmax without affecting Km.

For another data set, the target named is T3, mouse BACE-1 (Mus musculus, UniProt P56818).
T3 construct: purchased Life Technology
Put plainly: BACE-1 activity, fluorimetric method. It is filed as biochemical. The settings on record: for IC50: mouse BACE-1, pH 4.5, semilogarithmic plot.

The target in data set [3] is T4, Human β-amyloid peptide (1–40) (Homo sapiens, UniProt P05067).
T4 construct: Human β‐amyloid peptide (1–40, cat. ab120479); purchased Abcam ab120479
Briefly: Aβ 1–40 self-aggregation inhibition assay (thioflavine T). The settings on record: 96 μM peptide, 37°C, 24 h. The data set is classed as biochemical.

Another data set has as its target T5, GPR109A (HCA2) (Homo sapiens, UniProt Q8TDS4).
T5 construct: Tango fusion module; host or cells: HTLA-HEK293 cells stably expressing β-arrestin2-TEV and tTA-driven luciferase
Briefly: β-arrestin recruitment assay on GPR109A (HCA2-Tango, HTLA-HEK293 cells). It is filed as cell-based. The settings on record: HTLA-HEK293 cells expressing HCA2; different doses; 20 h; vs vehicle. A general note: Recruitment of arrestin is a read-out of receptor activation apart from second messengers.

Data set [4] relates to sAβ-injected mice. Put plainly: Novel object recognition test in sAβ-induced AD mouse model. The note with it: 10 mg/kg i.p. repeated, days 3 to 10 after sAβ; test at 1 h; sAβ/veh −0.115 ± 0.030; mean ± SEM. It is filed as in vivo, CD1 male mice.
Data set [5] relates to sAβ-injected mice. Briefly: Tail suspension test in sAβ-induced AD mouse model. The note with it: 10 mg/kg i.p. repeated, days 3 to 10 after sAβ; sAβ/veh 74.250 ± 7.465; mean ± SEM. It is filed as in vivo, CD1 male mice.
Data set [6] deals with LEC-DG pathway (hippocampus) of sAβ-injected mice. Briefly: In vivo LTP recording in the LEC-DG pathway of sAβ-injected mice. The note with it: 10 mg/kg i.p. repeated; for fEPSP slope after TBS: 30–60 min after TBS, sAβ/veh 110.92 ± 0.86; for fEPSP slope after TBS / fEPSP amplitude 30–60 min after TBS: relative to baseline; for fEPSP amplitude 30–60 min after TBS: sAβ/veh 110.5 ± 1.73. Further details: species or system CD1 male mice.

The subject of data set [7] is TRPM7. Briefly: Trpm7 mRNA expression in hippocampus by qPCR. The data set is classed as in vivo, mouse. The settings on record: treatment day 3 to 10 postinduction; upregulated by sAβ. For orientation: In qPCR the cycle at which signal appears reflects the starting amount.
Another data set relates to PPARα/γ. The settings on record: ref D'Aniello et al. [2019]; cited from earlier work.
In data set [8] the test system is TRPM7. The settings on record: ref Suzuki et al. [2023]; cited from earlier work.
The conditions of data set [9]: especially in a tween-based vehicle; ref Anderson et al. [2019]; cited from earlier work.
The target in data set [10] is T6, cannabinoid CB2 receptor (CNR2-Tango) (Homo sapiens, UniProt P34972).
T6 construct: Tango fusion module; expressed in transfected cells; host or cells: HTLA-HEK293 cells
Briefly: β-arrestin recruitment assay, positive control CNR2-Tango. The data set is classed as cell-based.

The mark [11] stands for this setting: AChE, inhibitor 1.25 µM, Lineweaver-Burk equation, from increase of Km, mean Ki in μM, read-out: Ki LB.
Where [12] appears, read: AChE, inhibitor 1.25 µM, Michaelis-Menten interpolation, from increase of Km, mean Ki in μM, read-out: Ki MM.
[13] abbreviates: AChE, inhibitor 2.50 µM, Lineweaver-Burk equation, from increase of Km, mean Ki in μM, read-out: Ki LB.
The mark [14] stands for this setting: AChE, inhibitor 3.00 µM, Lineweaver-Burk equation, from increase of Km, mean Ki in μM, read-out: Ki LB.
Setting [15] is: AChE, inhibitor 3.00 µM, Michaelis-Menten interpolation, from increase of Km, mean Ki in μM, read-out: Ki MM.
Where [16] appears, read: mean over experiments, n = 6 CBDA, n = 7 CBGA, competitive inhibition, read-out: calculated Ki, AChE.
[17] abbreviates: BuChE, Exp. 1, inhibitor 10 µM, Lineweaver-Burk equation, from decrease of Vmax, mean Ki in μM, read-out: Ki LB.
The mark [18] stands for this setting: BuChE, Exp. 1, inhibitor 10 µM, Lineweaver-Burk equation, no inhibitor 0.295.
The mark [19] stands for this setting: BuChE, Exp. 1, inhibitor 10 µM, Michaelis-Menten interpolation, from decrease of Vmax, mean Ki in μM, read-out: Ki MM.
Setting [20] is: BuChE, Exp. 1, inhibitor 10 µM, Michaelis-Menten interpolation, no inhibitor 0.299.
Where [21] appears, read: BuChE, Exp. 2, inhibitor 2.66 µM, Lineweaver-Burk equation, from decrease of Vmax, mean Ki in μM, read-out: Ki LB.
Setting [22] is: BuChE, Exp. 2, inhibitor 2.66 µM, Lineweaver-Burk equation, no inhibitor 0.220.
[23] abbreviates: BuChE, Exp. 2, inhibitor 2.66 µM, Michaelis-Menten interpolation, from decrease of Vmax, mean Ki in μM, read-out: Ki MM.
The mark [24] stands for this setting: mean over experiments, n = 4, noncompetitive inhibition, read-out: calculated Ki, BuChE.

T3 sequence (P56818 46-501): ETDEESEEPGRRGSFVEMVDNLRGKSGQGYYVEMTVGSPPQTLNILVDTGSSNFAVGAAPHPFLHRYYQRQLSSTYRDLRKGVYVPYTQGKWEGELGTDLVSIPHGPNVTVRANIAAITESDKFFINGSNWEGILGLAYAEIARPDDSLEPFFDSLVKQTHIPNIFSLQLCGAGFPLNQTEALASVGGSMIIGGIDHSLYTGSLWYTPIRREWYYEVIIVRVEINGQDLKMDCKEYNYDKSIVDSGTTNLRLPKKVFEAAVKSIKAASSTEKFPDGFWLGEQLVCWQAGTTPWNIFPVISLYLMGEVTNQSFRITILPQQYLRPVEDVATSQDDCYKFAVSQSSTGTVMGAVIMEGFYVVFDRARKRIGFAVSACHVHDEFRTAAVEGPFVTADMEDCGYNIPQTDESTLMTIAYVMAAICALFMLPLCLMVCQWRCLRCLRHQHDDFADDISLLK
T2 sequence (P81908 whole entry): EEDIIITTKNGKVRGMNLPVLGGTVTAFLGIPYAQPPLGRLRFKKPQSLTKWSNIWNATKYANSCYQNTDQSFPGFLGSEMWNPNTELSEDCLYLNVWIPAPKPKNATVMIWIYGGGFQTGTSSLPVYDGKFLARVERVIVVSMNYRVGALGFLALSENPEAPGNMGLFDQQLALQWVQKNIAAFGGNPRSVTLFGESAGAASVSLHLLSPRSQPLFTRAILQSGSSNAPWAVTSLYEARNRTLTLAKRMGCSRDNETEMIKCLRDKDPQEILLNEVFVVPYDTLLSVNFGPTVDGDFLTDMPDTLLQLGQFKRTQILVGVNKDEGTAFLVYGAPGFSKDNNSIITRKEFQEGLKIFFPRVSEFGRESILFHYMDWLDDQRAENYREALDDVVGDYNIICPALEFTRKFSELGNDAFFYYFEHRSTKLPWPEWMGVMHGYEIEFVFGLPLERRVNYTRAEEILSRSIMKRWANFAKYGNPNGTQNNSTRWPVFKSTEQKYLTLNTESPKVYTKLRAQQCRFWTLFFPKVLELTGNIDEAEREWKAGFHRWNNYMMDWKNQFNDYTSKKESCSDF
T1 sequence (O42275 24-633): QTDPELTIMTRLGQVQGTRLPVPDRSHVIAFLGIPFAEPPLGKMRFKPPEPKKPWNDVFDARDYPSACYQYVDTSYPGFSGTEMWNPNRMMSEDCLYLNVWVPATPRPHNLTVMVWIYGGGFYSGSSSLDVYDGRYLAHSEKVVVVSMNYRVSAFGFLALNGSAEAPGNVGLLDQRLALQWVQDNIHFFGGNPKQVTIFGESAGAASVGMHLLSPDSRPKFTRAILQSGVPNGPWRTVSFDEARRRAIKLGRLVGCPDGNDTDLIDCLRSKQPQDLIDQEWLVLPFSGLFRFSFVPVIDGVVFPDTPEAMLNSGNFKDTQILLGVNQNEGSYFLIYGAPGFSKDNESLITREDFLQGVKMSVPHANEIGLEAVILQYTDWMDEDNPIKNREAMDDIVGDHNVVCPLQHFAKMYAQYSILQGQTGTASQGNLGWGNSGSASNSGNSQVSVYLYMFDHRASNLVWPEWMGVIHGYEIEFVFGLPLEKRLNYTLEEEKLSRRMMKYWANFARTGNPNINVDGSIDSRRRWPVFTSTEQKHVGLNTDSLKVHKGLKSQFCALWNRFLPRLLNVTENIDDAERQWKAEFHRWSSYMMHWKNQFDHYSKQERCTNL
T5 sequence (Q8TDS4 whole entry, the tested form may be a part): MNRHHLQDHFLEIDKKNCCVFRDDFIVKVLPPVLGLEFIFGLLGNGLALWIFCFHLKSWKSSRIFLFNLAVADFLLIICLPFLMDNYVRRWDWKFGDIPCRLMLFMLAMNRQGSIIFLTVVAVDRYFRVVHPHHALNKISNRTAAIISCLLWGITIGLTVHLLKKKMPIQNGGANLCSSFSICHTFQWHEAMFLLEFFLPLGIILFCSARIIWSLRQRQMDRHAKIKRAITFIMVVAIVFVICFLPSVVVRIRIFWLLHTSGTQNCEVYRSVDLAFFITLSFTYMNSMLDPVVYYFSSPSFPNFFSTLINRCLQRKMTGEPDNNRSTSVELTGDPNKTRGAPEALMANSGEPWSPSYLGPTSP
T4 sequence (P05067 672-711 limits assumed): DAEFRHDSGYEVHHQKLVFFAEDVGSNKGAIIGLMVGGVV
T6 sequence (P34972 whole entry, the tested form may be a part): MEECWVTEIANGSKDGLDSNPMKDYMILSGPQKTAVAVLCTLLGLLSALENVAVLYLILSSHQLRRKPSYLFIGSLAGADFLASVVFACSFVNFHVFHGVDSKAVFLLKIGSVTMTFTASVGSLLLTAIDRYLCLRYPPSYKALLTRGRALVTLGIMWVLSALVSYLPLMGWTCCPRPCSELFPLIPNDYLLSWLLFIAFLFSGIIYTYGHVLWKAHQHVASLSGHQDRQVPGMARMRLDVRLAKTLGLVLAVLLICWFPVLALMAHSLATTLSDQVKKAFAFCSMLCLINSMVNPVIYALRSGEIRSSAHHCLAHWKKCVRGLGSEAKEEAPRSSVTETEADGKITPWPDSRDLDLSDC

With `CCCCCc1cc(O)c(C/C=C(\C)CCC=C(C)C)c(O)c1C(=O)O` [CBGA, cannabigerolic acid], the Ki in data set [1] (setting [11]) was 13.5 µM; in data set [1] (setting [12]), 9.1 µM; in data set [1] (setting [13]), 9.6 µM; in data set [1] (AChE, inhibitor 2.50 µM, Michaelis-Menten interpolation, from increase of Km, mean Ki in μM, read-out: Ki MM), 12.2 µM; in data set [1] (setting [14]), 6.5 µM; in data set [1] (setting [15]), 8.1 µM. Moreover, the inhibition constant (Ki) was 14.4 µM in data set [1] (AChE, inhibitor 3.75 µM, Lineweaver-Burk equation, from increase of Km, mean Ki in μM, read-out: Ki LB); 26.7 µM in data set [1] (AChE, inhibitor 3.75 µM, Michaelis-Menten interpolation, from increase of Km, mean Ki in μM, read-out: Ki MM); 10.5 ± 2.9 µM in data set [1] (setting [16]); 39.2 µM in data set [2] (setting [17]); 26 µM in data set [2] (setting [19]); 14.1 µM in data set [2] (setting [21]). Further, the Ki was 14 µM in [2] (setting [23]) and 23.3 ± 12 µM in data set [2] (setting [24]). In addition, the “inhibition type on AChE” value in data set [1] is given as “competitive inhibitors”. The “Vmax LB” value stood at 0.235 in [2] (setting [18]) and 0.185 in data set [2] (setting [22]). The “Vmax MM” value in data set [2] (setting [20]) was found to be 0.216; in [2] (BuChE, Exp. 2, inhibitor 2.66 µM, Michaelis-Menten interpolation, no inhibitor 0.249) it was 0.209. Further, the “inhibition type on BuChE” value in [2] is reported as “noncompetitive inhibitors”. The values for the IC50 (at mouse BACE-1; in data set [3]) were 1.4 ± 0.1 µM and 47.7 ± 2.1 µM, respectively. Further, the “efficiency in inhibiting mBACE-1, CBGA relative to CBDA” value on mouse BACE-1 (ratio of IC50 values) was “roughly 4 times”. Moreover, the “β-arrestin recruitment / activation of GPR109A” value at GPR109A (HCA2) was “no recruitment of β‐arrestin and no direct receptor activation”. Also, the “NOR index (recognition index)” value with sAβ-injected mice [4] is 0.183 ± 0.052. For the same compound, the “immobility in tail suspension test” value in the data set with sAβ-injected mice [5] was determined as 20.500 ± 6.764 s. For the same compound, the “fEPSP slope after TBS” value in data set [6] stood at 203.21 ± 22.55%. In addition, the “fEPSP amplitude 0–15 min (baseline)” value in data set [6] is recorded as 100.8 ± 0.61%. In addition, the “fEPSP slope 0–15 min (baseline)” value in [6] is listed as 100.94 ± 1.15%. Moreover, the “fEPSP amplitude 30–60 min after TBS” value in data set [6] amounted to 174.34 ± 6.97%. Moreover, the “Trpm7 expression in hippocampus” value in the data set on TRPM7 [7] is recorded as “reverted to the basal level”. In the data set with PPARα/γ, the “activity on PPARα/γ” value was “dual PPARα/γ agonists”. The “activity on TRPM7” value in the data set with TRPM7 [8] is “inhibitors of TRPM7”.

Take `C=C(C)[C@@H]1CCC(C)=C[C@H]1c1c(O)cc(CCCCC)c(C(=O)O)c1O` [CBDA, cannabidiolic acid]: the inhibition constant Ki in data set [1] (setting [11]) was determined as 55 µM; in data set [1] (setting [12]), 32.1 µM; in data set [1] (AChE, inhibitor 1.75 µM, Lineweaver-Burk equation, from increase of Km, mean Ki in μM, read-out: Ki LB), 4.2 µM; in data set [1] (AChE, inhibitor 1.75 µM, Michaelis-Menten interpolation, from increase of Km, mean Ki in μM, read-out: Ki MM), 13.9 µM; in data set [1] (setting [13]), 10.5 µM; in [1] (setting [14]), 10.6 µM. Further, the Ki in data set [1] (setting [15]) is 3.4 µM; in [1] (setting [16]), 7.9 ± 4.3 µM; in data set [2] (setting [17]), 6.1 µM; in data set [2] (setting [19]), 6.6 µM; in data set [2] (setting [21]) it was 7.5 µM; in data set [2] (setting [23]), 6.4 µM. For the same compound, the inhibition constant Ki in data set [2] (setting [24]) is 6.7 ± 0.6 µM. Moreover, the “inhibition type on AChE” value in data set [1] is given as “competitive inhibitors”. Moreover, the “Vmax LB” value in [2] (setting [18]) was determined as 0.112; in data set [2] (setting [22]), 0.162. The “Vmax MM” value in data set [2] (setting [20]) was 0.119. The “inhibition type on BuChE” value in data set [2] is on record as “noncompetitive inhibitors”. Besides, the IC50 against mouse BACE-1 worked out at 6.1 ± 0.2 µM; in data set [3] it was 57.5 ± 0.8 µM. Further, the “β-arrestin recruitment / activation of GPR109A” value on GPR109A (HCA2) was “no recruitment of β‐arrestin and no direct receptor activation”. The “immobility in tail suspension test” value in the data set on sAβ-injected mice [5] is 64.000 ± 12.523 s. For the same compound, the “fEPSP slope after TBS” value in data set [6] turned out to be 157.46 ± 14.5%. Moreover, in data set [6], the “fEPSP amplitude 0–15 min (baseline)” value stood at 99.97 ± 0.024%. The “fEPSP slope 0–15 min (baseline)” value in data set [6] is given as 99.95 ± 0.27%. Moreover, in data set [6], the “fEPSP amplitude 30–60 min after TBS” value is on record as 132.08 ± 2.83%. For the same compound, the “Trpm7 expression in hippocampus” value with TRPM7 [7] was “reverted to the basal level”. Also, in the data set with PPARα/γ, the “activity on PPARα/γ” value is recorded as “dual PPARα/γ agonists”. Further, the “activity on TRPM7” value in the data set with TRPM7 [8] is “inhibitors of TRPM7”. In data set [9], the “blood–brain barrier crossing” value is listed as “can cross the blood–brain barrier”.

On to `CCCC(C)(C)c1ccc2c(c1)OC(C)(C)[C@@H]1CC=C(C)C[C@@H]21` [JWH-133], for which, in data set [10], the “β-arrestin recruitment at CB2 receptor” value is given as “strong β-arrestin recruitment”.

A word on the Ki: it is a dissociation constant, usually derived from enzyme kinetics or from competition with a known ligand. As a reminder, the IC50 is the concentration that inhibits the measured activity by half. Read a low IC50 as inhibition by little substance.
